Columns and labels:
pre-iPS cells = assay: Adding inhibitors to pre-iPS cells in the presence of foetal calf serum plus LIF; type: cell-based, mouse; conditions: for effect on Oct4-GFP activation: foetal calf serum plus LIF, inhibitor alone
Description: We also examined the effect of adding inhibitors in the presence of foetal calf serum plus LIF. The addition of 2i induced stable activation of Oct4-GFP in around 10% of emerging colonies. […] The reduced frequency compared with serum-free 2i culture may be because the ability of PD0325901 to suppress Erk activation is counteracted by serum factors.

[1] = tested on: Oct4-GFP expressing I-iPS cells; assay: Oct4-GFP reporter activity of partially reprogrammed cells cultured in Fgf2 and activin, with activin receptor inhibitor; type: cell-based, mouse; conditions: serum free
Description: Culture of FACS purified GFP expressing incomplete (I) iPS cells in Fgf2 and activin (left) and subsequently on addition of activin receptor inhibitor SB431542 (right). To further investigate the phenotype of these partially reprogrammed cells we assessed Oct4 reporter activity in different culture environments. In conventional ES cell culture using the self renewal cytokine Leukaemia Inhibitory Factor (LIF) and serum in presence or absence of feeders, Oct4-GFP expression was not maintained. In contrast, reporter expression stabilized when cells were cultured serum free in the presence of Fgf2 and activin (FIG. 2). These are conditions used for the propagation of EpiSCs derived from post-implantation embryos (Brons et al., 2007; Tesar et al., 2007). […] We conclude that NS cells are efficiently converted by the reprogramming factors into a heterogeneous cell population with certain properties of EpiSCs rather than ES cells.

| SMILES | effect on Oct4-GFP activation (pre-iPS cells) | expression of Nanog and Rex1 (pre-iPS cells; cells expanded in serum and LIF) | effect of inhibitor on Oct4-GFP reporter activity and cells [1] |
| --- | --- | --- | --- |
| Cc1c[nH]c(-c2cnc(NCCNc3ccc(C#N)cn3)nc2-c2ccc(Cl)cc2Cl)n1 [GSK3 inhibitor, CHIR99021] | no discernible effect | – | – |
| O=C(NOC[C@H](O)CO)c1ccc(F)c(F)c1Nc1ccc(I)cc1F [MEK inhibitor, PD0325901] | comparable to 2i | acquired expression of Nanog and Rex1 | – |
| NC(=O)c1ccc(-c2nc(-c3ccc4c(c3)OCO4)c(-c3ccccn3)[nH]2)cc1 [SB43154212, SB431542] | – | – | loss of reporter activity, cell death and differentiation |

Source: patent US20100330677A1, “Improved Reprogramming of Mammalian Cells, and Cells Obtained” (Cambridge Enterprise Limited, priority 2008, published 2010)
